According to ChEMBL document CHEMBL3585249, “Strongylophorines, meroditerpenoids from the marine sponge Petrosia corticata, function as proteasome inhibitors” (Bioorg Med Chem Lett, 2015):

Assay: Inhibition of human erythrocyte 20S proteasome assessed as reduction in chymotrypsin-like activity pre-incubated for 10 mins before addition of Suc-Leu-Leu-Val-Tyr-MCA fluorogenic substrate by fluorescence based assay

CO[C@H]1OC[C@]23CCC[C@@]1(C)C2CC[C@]1(C)C3CC[C@]2(C)Oc3ccc(O)cc3CC12 (some centres undefined)
IC50: 6.6 µM

CCO[C@H]1OC[C@]23CCC[C@@]1(C)C2CC[C@]1(C)C3CC[C@]2(C)Oc3ccc(O)cc3CC12 (some centres undefined)
IC50: 9.3 µM

C[C@@]12CC[C@@H]3[C@]4(CCC[C@]3(C)C(O)OC4)[C@H]1CC[C@](C)(O)[C@H]2Cc1cc(O)ccc1O (some centres undefined)
IC50: 2.1 µM

C[C@@]12CC[C@@H]3[C@]4(CCC[C@]3(C)C(O)OC4)[C@H]1CC[C@]1(C)Oc3ccc(O)cc3C[C@@H]21 (some centres undefined)
IC50: 3.6 µM

C[C@]12CCC[C@](C)(C(=O)O)[C@@H]1CC[C@]1(C)[C@@H]2CC[C@]2(C)Oc3ccc(O)cc3C[C@@H]12 [Strongylophorin-3]
IC50: 9.5 µM

CC1(C)CCC[C@]2(C)[C@H]3CC[C@]4(C)Oc5ccc(O)cc5C[C@H]4[C@]3(C)CC[C@@H]12 [Strongylophorin-22]
IC50: > 100 µM

C[C@@]12CC[C@@H]3[C@]4(CCC[C@@]3(C)C(=O)OC4)[C@H]1CC[C@]1(C)Oc3ccc(O)cc3C[C@@H]21 [strongylophorine-2]
IC50: > 100 µM

CC(=O)[C@@]1(C)CCC[C@]2(C)[C@H]3CC[C@]4(C)Oc5ccc(O)cc5C[C@H]4[C@]3(C)CC[C@H]21 [strongylophorine-4]
IC50: 19 µM

C[C@@]12CC[C@@H]3[C@]4(CCC[C@]3(C)C(=O)OC4)[C@H]1CC[C@](C)(O)[C@H]2Cc1cc(O)ccc1O [strongylophorine-8]
IC50: 8.4 µM
